Like-named read-outs stand apart in the source and are kept apart here.
Assays:
Type in all cases: in vivo
[1] = tested on: tobacco cutworm (Spodoptera litura); assay: Mortality test on fourth instar larvae of tobacco cutworm on treated artificial diet (Test example 2); conditions: 144 h; for mortality at 0.5 ppm: read-out: Concentration and mortality (%) 0.5 ppm; for mortality at […]: in Nicotiana tabacum, read-out: Concentration and mortality (%) […], 1.5 ppm, 2 ml on 13 g artificial diet, ten fourth instar larvae, after six days, two replications
Experimental: The emulsifiable concentrates of the following present compounds and controls prepared according to Formulation example 1 were each diluted with water to a prescribed concentration, and 2 ml of the aqueous dilute solution thus obtained was applied onto 13 g of artificial diet for tobacco cutworm (Spodoptera litura) which were then put in a polyethylene cup of 11 cm in diameter. Then, ten fourth instar larvae of tobacco cutworm were liberated therein. After six days, the dead and alive were examined to obtain mortality (two replications).

[2] = tested on: diamond-back moth (Plutella xylostella) of a field strain; assay: Emergence inhibition test on third instar larvae of diamond-back moth, cabbage leaf dipping (Test example 4); conditions: 200,000-fold dilution (0.5 ppm); cabbage leaf dipped 1 minute; ten third instar larvae; after nine days; corrected against untreated plot; two replications
Experimental: A circular cabbage leaf of 9.0 cm in diameter was dipped for 1 minute in the 200,000-fold aqueous dilute solutions each (corresponding to 0.5 ppm) of emulsifiable concentrates prepared from the following present compounds and controls according to Formulation example 1. After air-drying, the leaf was put in a polyethylene cup of 11 cm in diameter in which a filter paper was placed on the bottom, and ten third instar larvae of diamond-back moth (Plutella xylostella) of a field strain were liberated therein. After nine days, the number of emergence was examined to obtain an emergence inhibitory ratio (two replications).

[3] = tested on: rice stem borer (Chilo suppressalis); assay: Mortality test on 10-day old larvae of rice stem borer on treated artificial diet (Test example 3); conditions: 192 h, 67,000-fold dilution (1.5 ppm), 1 ml on 5 g artificial diet, ten 10-day old larvae, after eight days, two replications
Source text: Then, ten 10-day old larvae of rice stem borer were liberated therein. After eight days, the dead and alive were examined to obtain mortality (two replications).

[4] = tested on: common mosquito (Culex pipiens pallens); assay: Emergence inhibition test on last instar larvae of common mosquito in aqueous dilute solution (Test example 1); conditions: active ingredient concentration 3.5 ppm in water; 20 last instar larvae; bred until emergence; two replications
Experimental: The emulsifiable concentrates of the following present compounds prepared according to Formulation example 1 were each diluted with water so that the active ingredient concentration was 3.5 ppm. Thereafter, 100 ml of the aqueous dilute solution thus obtained was put in a 180-ml polyethylene cup, and 20 last instar larvae of common mosquito (Culex pipiens pallens) were liberated therein. The larvae were bred on a bait until emergence to obtain an emergence inhibitory ratio (two replications).

[5] = 0.5 ppm, 2 ml on 13 g artificial diet, ten fourth instar larvae, after six days, two replications

O=C(NC(=O)c1c(F)cccc1F)Nc1ccc(C(F)(F)F)cc1F [(1), N-2,6-difluorobenzoyl-Nʹ-2-fluoro-4-trifluoromethylphenylurea]
mortality at 0.5 ppm [1, 5]: 80%
mortality at […] [1]: 100%
Emergence inhibitory ratio (%) [2]: 100%
mortality at […] [3]: 90%
Emergence inhibitory ratio (%) [4]: 100%

O=C(NC(=O)c1c(F)cccc1F)Nc1ccc(C(F)(F)C(F)(F)F)cc1F [(9), N-2,6-difluorobenzoyl-Nʹ-2-fluoro-4-pentafluoroethylphenylurea]
mortality at 0.5 ppm [1, 5]: 100%
mortality at […] [1]: 100%
Emergence inhibitory ratio (%) [2]: 100%
mortality at […] [3]: 90%
Emergence inhibitory ratio (%) [4]: 100%

O=C(NC(=O)c1c(F)cc(F)cc1F)Nc1cc(F)c(C(F)(F)F)cc1F [(3), N-2,4,6-trifluorobenzoyl-Nʹ-2,5-difluoro-4-trifluoromethylphenylurea]
mortality at 0.5 ppm [1, 5]: 100%
mortality at […] [1]: 100%
Emergence inhibitory ratio (%) [2]: 89%
mortality at […] [3]: 90%
Emergence inhibitory ratio (%) [4]: 100%

O=C(NC(=O)c1c(F)cccc1F)Nc1cc(F)c(C(F)(F)F)cc1F [(2), N-2,6-difluorobenzoyl-Nʹ-2,5-difluoro-4-trifluoromethylphenylurea]
mortality at 0.5 ppm [1, 5]: 100%
mortality at […] [1]: 100%
Emergence inhibitory ratio (%) [2]: 100%
mortality at […] [3]: 100%
Emergence inhibitory ratio (%) [4]: 100%

O=C(NC(=O)c1c(F)cccc1F)Nc1cc(Cl)cc(C(F)(F)F)c1Cl [(F), reference compound]
mortality at 0.5 ppm [1, 5]: 20%
mortality at […] [1]: 60%
Emergence inhibitory ratio (%) [2]: 22%
mortality at […] [3]: 10%

O=C(NC(=O)c1c(F)cc(F)cc1F)Nc1ccc(C(F)(F)C(F)(F)F)cc1F [(10), N-2,4,6-trifluorobenzoyl-Nʹ-2-fluoro-4-pentafluoroethylphenylurea]
mortality at 0.5 ppm [1, 5]: 100%
mortality at […] [1]: 100%
Emergence inhibitory ratio (%) [2]: 100%
mortality at […] [3]: 80%
Emergence inhibitory ratio (%) [4]: 100%

O=C(NC(=O)c1c(F)cc(F)cc1F)Nc1ccc(C(F)(F)F)cc1F [(5), N-2,4,6-trifluorobenzoyl-Nʹ-2-fluoro-4-trifluoromethylphenylurea]
mortality at 0.5 ppm [1, 5]: 100%
mortality at […] [1]: 100%
Emergence inhibitory ratio (%) [2]: 100%
mortality at […] [3]: 100%
Emergence inhibitory ratio (%) [4]: 100%

CNC(=O)ON=C(C)SC [(D), Methomyl, reference compound]
mortality at 0.5 ppm [1, 5]: 0%
mortality at […] [1]: 10%
Emergence inhibitory ratio (%) [2]: 0%
mortality at […] [3]: 5%

O=C(NC(=O)c1c(F)cccc1F)Nc1cc(Cl)c(F)c(Cl)c1F [(C), Teflubenzuron, reference compound]
mortality at 0.5 ppm [1]: 20%
Emergence inhibitory ratio (%) [2]: 33%

O=C(NC(=O)c1c(F)cccc1F)Nc1cc(F)c(C(F)(F)C(F)(F)C(F)(F)F)cc1F [(7), N-2,6-difluorobenzoyl-Nʹ-2,5-difluoro-4-heptafluoropropylphenylurea]
mortality at 0.5 ppm [1, 5]: 100%
mortality at […] [1]: 100%
Emergence inhibitory ratio (%) [2]: 100%
mortality at […] [3]: 100%
Emergence inhibitory ratio (%) [4]: 100%

O=C(NC(=O)c1c(F)cccc1F)Nc1ccc(Cl)cc1F [(E), reference compound]
mortality at 0.5 ppm [1, 5]: 10%
mortality at […] [1]: 45%
Emergence inhibitory ratio (%) [2]: 33%
mortality at […] [3]: 35%

O=C(NC(=O)c1c(F)cccc1F)Nc1ccc(Cl)cc1 [(A), Diflubenzuron, reference compound]
mortality at 0.5 ppm [1]: 5%
Emergence inhibitory ratio (%) [2]: 11%

O=C(NC(=O)c1c(F)cc(F)cc1F)Nc1cc(F)c(C(F)(F)C(F)(F)C(F)(F)F)cc1F [(8), N-2,4,6-trifluorobenzoyl-Nʹ-2,5-difluoro-4-heptafluoropropylphenylurea]
Emergence inhibitory ratio (%) [2]: 73%
mortality at […] [3]: 80%
Emergence inhibitory ratio (%) [4]: 100%

O=C(NC(=O)c1c(F)cccc1F)Nc1cc(F)c(C(F)(F)C(F)(F)F)cc1F [(6), N-2,6-difluorobenzoyl-Nʹ-2,5-difluoro-4-pentafluoroethylphenylurea]
mortality at 0.5 ppm [1, 5]: 100%
mortality at […] [1]: 100%
Emergence inhibitory ratio (%) [2]: 100%
mortality at […] [3]: 80%
Emergence inhibitory ratio (%) [4]: 100%

O=C(NC(=O)c1c(F)cccc1F)Nc1cc(Cl)c(C(F)(F)F)cc1F [(4), N-2,6-difluorobenzoyl-Nʹ-5-chloro-2-fluoro-4-trifluoromethylphenylurea]
mortality at 0.5 ppm [1, 5]: 70%
mortality at […] [1]: 100%
Emergence inhibitory ratio (%) [2]: 89%
mortality at […] [3]: 100%
Emergence inhibitory ratio (%) [4]: 100%

Reference: patent publication EP0246061A2, “A benzoylurea derivative and its production and use” (SUMITOMO CHEMICAL COMPANY, LIMITED, priority 1986, dated 1987)
